Source: ChEMBL document CHEMBL4819089, “Magnolol, a natural aldehyde dehydrogenase-2 agonist, inhibits the proliferation and collagen synthesis of cardiac fibroblasts” (Bioorg Med Chem Lett, 2021)
One block for each compound: values may come before it. The source made the active and inactive calls. The rule behind the calls is not given here.

Tests used:
Cardiac fibroblast [1] = assay: Anti-myocardial fibrosis activity against cardiac fibroblasts (unknown origin) assessed as inhibition of cell proliferation at 30 uM measured after 24 hrs by EdU incorporation based assay; format: functional, tissue-based
Cardiac fibroblast [2] = assay: Anti-myocardial fibrosis activity against cardiac fibroblasts (unknown origin) assessed as inhibition of cell viability at 30 uM measured after 24 hrs by MTT assay; format: functional, tissue-based
Cardiac fibroblast [3] = assay: Anti-myocardial fibrosis activity against cardiac fibroblasts (unknown origin) assessed as reduction in cyclinD1 protein expression at 30 uM measured after 24 hrs by western blot analysis; format: functional, tissue-based
Cardiac fibroblast [4] = assay: Anti-myocardial fibrosis activity against cardiac fibroblasts (unknown origin) assessed as reduction in collagen synthesis by measuring reduction in type3 collagen protein expression at 30 uM measured after 24 hrs by western blot analysis; format: functional
Cardiac fibroblast [5] = assay: Anti-myocardial fibrosis activity against cardiac fibroblasts (unknown origin) assessed as reduction in CDK4 protein expression at 30 uM measured after 24 hrs by western blot analysis; format: functional, tissue-based
Cardiac fibroblast [6] = assay: Anti-myocardial fibrosis activity against cardiac fibroblasts (unknown origin) assessed as reduction in collagen synthesis by measuring reduction in type1 collagen protein expression at 30 uM measured after 24 hrs by western blot analysis; format: functional
Cardiac fibroblast [7] = assay: Anti-myocardial fibrosis activity against cardiac fibroblasts (unknown origin) assessed as inhibition of cell proliferation measured after 24 hrs by EdU incorporation based assay; format: functional, tissue-based; conditions: dose 5-20 µM
Cardiac fibroblast [8] = assay: Anti-myocardial fibrosis activity against cardiac fibroblasts (unknown origin) assessed as reduction in CDK4 protein expression measured after 24 hrs by western blot analysis; format: functional, tissue-based; conditions: dose 5-20 µM
Cardiac fibroblast [9] = assay: Anti-myocardial fibrosis activity against cardiac fibroblasts (unknown origin) assessed as reduction in collagen synthesis by measuring reduction in type3 collagen protein expression measured after 24 hrs in presence of ALDH2 inhibitor, daidzin by western blot analysis; format: functional, tissue-based
Cardiac fibroblast [10] = assay: Effect on ALDH2 expression in cardiac fibroblasts (unknown origin) at 5 to 20 uM measured after 24 hrs by western blot analysis; format: functional, tissue-based; conditions: dose 5-20 µM
[11] = target: T1, Aldehyde dehydrogenase, mitochondrial (Homo sapiens, UniProt P05091); assay: (§1) Agonist activity at human recombinant ALDH2 measured after 1 hr
T1 sequence (P05091 whole entry): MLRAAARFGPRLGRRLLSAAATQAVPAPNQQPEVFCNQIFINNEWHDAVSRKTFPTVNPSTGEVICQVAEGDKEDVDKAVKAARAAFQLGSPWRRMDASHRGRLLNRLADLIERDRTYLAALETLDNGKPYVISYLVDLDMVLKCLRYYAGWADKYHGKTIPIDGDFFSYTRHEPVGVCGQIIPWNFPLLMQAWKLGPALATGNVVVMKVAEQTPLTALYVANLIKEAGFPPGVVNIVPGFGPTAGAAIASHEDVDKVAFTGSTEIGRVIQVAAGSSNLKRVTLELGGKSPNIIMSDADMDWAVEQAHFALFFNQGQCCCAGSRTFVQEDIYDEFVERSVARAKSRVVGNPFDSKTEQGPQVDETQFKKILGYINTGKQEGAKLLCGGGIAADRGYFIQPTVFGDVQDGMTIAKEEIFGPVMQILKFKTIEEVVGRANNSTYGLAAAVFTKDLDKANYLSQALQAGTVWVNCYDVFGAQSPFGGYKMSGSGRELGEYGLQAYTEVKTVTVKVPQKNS

[12] = target: T2, Aldehyde dehydrogenase, mitochondrial (Homo sapiens) (UniProt P05091); assay: as §1; conditions: filed as agonist
T2 sequence (whole entry): T1 sequence (P05091 whole entry)

Cardiac fibroblast [13] = assay: Anti-myocardial fibrosis activity against cardiac fibroblasts (unknown origin) assessed as inhibition of cell proliferation measured after 24 hrs in presence of ALDH2 inhibitor, daidzin by EdU incorporation based analysis; format: functional, tissue-based
Cardiac fibroblast [14] = assay: Anti-myocardial fibrosis activity against cardiac fibroblasts (unknown origin) assessed as inhibition of cell viability measured after 24 hrs by MTT assay; format: functional, tissue-based; conditions: dose 5-20 µM
Cardiac fibroblast [15] = assay: Effect on Bax protein expression in cardiac fibroblasts (unknown origin) at 5 to 20 uM incubated for 24 hrs by western blot analysis; format: functional, tissue-based; conditions: dose 5-20 µM
Cardiac fibroblast [16] = assay: Anti-myocardial fibrosis activity against cardiac fibroblasts (unknown origin) assessed as reduction in CDK4 protein expression measured after 24 hrs in presence of ALDH2 inhibitor, daidzin by western blot analysis; format: functional, tissue-based
Cardiac fibroblast [17] = assay: Anti-myocardial fibrosis activity against cardiac fibroblasts (unknown origin) assessed as reduction in cyclinD1 protein expression measured after 24 hrs in presence of ALDH2 inhibitor, daidzin by western blot analysis; format: functional, tissue-based
Cardiac fibroblast [18] = assay: Effect on Bax protein expression in cardiac fibroblasts (unknown origin) measured after 24 hrs in presence of ALDH2 inhibitor, daidzin by western blot analysis; format: functional, tissue-based
Cardiac fibroblast [19] = assay: Effect on Bcl2 protein expression in cardiac fibroblasts (unknown origin) at 5 to 20 uM incubated for 24 hrs by western blot analysis; format: functional, tissue-based; conditions: dose 5-20 µM
Cardiac fibroblast [20] = assay: Anti-myocardial fibrosis activity against cardiac fibroblasts (unknown origin) assessed as reduction in collagen synthesis by measuring reduction in type1 collagen protein expression measured after 24 hrs in presence of ALDH2 inhibitor, daidzin by western blot analysis; format: functional, tissue-based
Cardiac fibroblast [21] = assay: Anti-myocardial fibrosis activity against cardiac fibroblasts (unknown origin) assessed as reduction in cyclinD1 protein expression measured after 24 hrs by western blot analysis; format: functional, tissue-based; conditions: dose 5-20 µM
[22] = target: T2, Aldehyde dehydrogenase, mitochondrial (Homo sapiens); assay: Binding affinity to ALDH2 (unknown origin) by surface plasmon resonance analysis; conditions: filed as agonist
Cardiac fibroblast [23] = assay: Anti-myocardial fibrosis activity against cardiac fibroblasts (unknown origin) assessed as reduction in collagen synthesis by measuring reduction in type1 collagen protein expression measured after 24 hrs by western blot analysis; format: functional, tissue-based; conditions: dose 5-20 µM
Cardiac fibroblast [24] = assay: Anti-myocardial fibrosis activity against cardiac fibroblasts (unknown origin) assessed as reduction in collagen synthesis by measuring reduction in type3 collagen protein expression measured after 24 hrs by western blot analysis; format: functional; conditions: dose 5-20 µM
Cardiac fibroblast [25] = assay: Anti-myocardial fibrosis activity against cardiac fibroblasts (unknown origin) assessed as inhibition of cell viability at 20 uM measured for 120 hrs by MTT assay; format: functional, tissue-based
Cardiac fibroblast [26] = assay: Anti-myocardial fibrosis activity against cardiac fibroblasts (unknown origin) assessed as inhibition of cell viability measured after 24 hrs in presence of ALDH2 inhibitor, daidzin by MTT assay; format: functional, tissue-based
[27] = target: T2, Aldehyde dehydrogenase, mitochondrial (Homo sapiens); assay: Agonist activity at ALDH2 in cardiac fibroblasts (unknown origin) measured after 24 hrs by ELISA; format: tissue-based; conditions: Cardiac fibroblast, filed as agonist, dose 5-20 µM
Cardiac fibroblast [28] = assay: Effect on Bcl2 protein expression in cardiac fibroblasts (unknown origin) measured after 24 hrs in presence of ALDH2 inhibitor, daidzin by western blot analysis; format: functional, tissue-based

SMILES: O=C(NCc1ccc2c(c1)OCO2)c1c(Cl)cccc1Cl
Activity (Cardiac fibroblast [1]): Active
Activity (Cardiac fibroblast [2]): Active
Activity (Cardiac fibroblast [3]): Active
Activity (Cardiac fibroblast [4]): Active
Activity (Cardiac fibroblast [5]): Active
Activity (Cardiac fibroblast [6]): Active

EC50 [11]: 57.9 µM
Activity [12]: Dose-Dependent Effect
Activity [22]: 7.07 10^-6M
Activity [27]: Dose-Dependent Effect
SMILES: C=CCc1ccc(O)c(-c2cc(CC=C)ccc2O)c1 [MAGNOLOL]
Activity (Cardiac fibroblast [7]): Dose-Dependent Effect
Activity (Cardiac fibroblast [8]): Dose-Dependent Effect
Activity (Cardiac fibroblast [9]): inactive
Activity (Cardiac fibroblast [10]): inactive
Activity (Cardiac fibroblast [13]): inactive
Activity (Cardiac fibroblast [14]): Dose-Dependent Effect
Activity (Cardiac fibroblast [15]): inactive
Activity (Cardiac fibroblast [16]): inactive
Activity (Cardiac fibroblast [17]): inactive
Activity (Cardiac fibroblast [18]): inactive
Activity (Cardiac fibroblast [19]): inactive
Activity (Cardiac fibroblast [20]): inactive
Activity (Cardiac fibroblast [21]): Dose-Dependent Effect
Activity (Cardiac fibroblast [23]): Dose-Dependent Effect
Activity (Cardiac fibroblast [24]): Dose-Dependent Effect
Activity (Cardiac fibroblast [25]): Active
Activity (Cardiac fibroblast [26]): inactive
Activity (Cardiac fibroblast [28]): inactive
